In patent publication US8008329B2 (Dong Wha Pharmaceutical Co., Ltd., priority 2008, dated 2011):
Marks after values point to notes of the source that are not given here.

Tested on: osteoclast differentiation
Assay: Osteoclast differentiation in co-culture of mouse bone marrow cells and ST2 cells, TRAP staining (Examples 8-9)
Type: cell-based
Settings: for % number of osteoclast (vs. solvent control group): 0.1 μM each, day 7; for activity at 0.1 µM: Mus musculus, Osteoclast, 168 h, Individual treatment (compounds), day 7, read-out: % number of osteoclast (vs. solvent control group)
Outline: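 Bone marrow cells from 6-8-week male ddY mice were co-cultured with ST2 stromal cells under 10^−8 M vitamin D3 and 10^−8 M dexamethasone, with compounds at 0.1 μM final (0.1% DMSO control), refreshed on days 3 and 5. On day 7, TRAP-positive osteoclasts with ≥6 nuclei were counted and expressed as % of solvent control (n=4).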

[1] = Combination treatment (alendronic acid + compounds)
[2] = Combination treatment (risedronic acid + compounds)

N=C(NO)c1ccc(OCCCCCOc2ccc(-c3nc(N4CCCCC4)sc3CC3CCCC3)cc2)cc1 [Compound 167, N-hydroxy-4-{5-[4-(5-cyclopentylmethyl-2-piperidino-1,3-thiazol-4-yl)phenoxy]pentyloxy}-benzamidine]
% number of osteoclast (vs. solvent control group) [1]: 25 ± 1.9^b %
% number of osteoclast (vs. solvent control group) [2]: 31 ± 7.6^ac %
activity at 0.1 µM: 72 ± 9.8%

N=C(NO)c1ccc(OCCCCCOc2ccc(-c3nc(N4CCOCC4)sc3CC3CCCC3)cc2)cc1 [Compound 168, N-hydroxy-4-{5-[4-(5-cyclopentylmethyl-2-morpholino-1,3-thiazol-4-yl)phenoxy]pentyloxy}-benzamidine]
% number of osteoclast (vs. solvent control group) [1]: 39 ± 5.2^ab %
% number of osteoclast (vs. solvent control group) [2]: 29 ± 9.7^ac %
activity at 0.1 µM: 70 ± 9.1%

N=C(NO)c1ccc(OCCCCCOc2ccc(-c3nc(N4CCOCC4)sc3C3CCCC3)cc2)cc1 [Compound 172, N-hydroxy-4-{5-[4-(5-cyclopentyl-2-morpholin-4-yl-1,3-thiazol-4-yl)phenoxy]pentyloxy}-benzamidine]
% number of osteoclast (vs. solvent control group) [1]: 33 ± 5.3^ab %
% number of osteoclast (vs. solvent control group) [2]: 26 ± 5.1^a %
activity at 0.1 µM: 57 ± 5.1%

CCc1sc(N2CCN(C)CC2)nc1-c1ccc(OCCCCCOc2ccc(C(=N)NO)cc2)cc1 [Compound 174, N-hydroxy-4-{5-(4-[5-ethyl-2-(4-methylpiperazino)-1,3-thiazol-4-yl]phenoxy)pentyloxy}-benzamidine]
% number of osteoclast (vs. solvent control group) [1]: 46 ± 2.6^ab %
% number of osteoclast (vs. solvent control group) [2]: 35 ± 5.1^ac %
activity at 0.1 µM: 70 ± 2.5%

Cc1nc(-c2ccc(OCCCCCNc3ccc(C(=N)NO)cc3)cc2)c(C(C)C)s1 [Compound 177, N-hydroxy-4-{5-[4-(5-isopropyl-2-methyl-1,3-thiazol-4-yl)-phenoxy]-pentylamino}-benzamidine]
% number of osteoclast (vs. solvent control group) [1]: 34 ± 10.2^ab %
% number of osteoclast (vs. solvent control group) [2]: 34 ± 5.7^ac %
activity at 0.1 µM: 74 ± 10.1%

Cc1nc(-c2ccc(OCCCCC(=O)Nc3ccc(C(=N)NO)cc3)cc2)c(C(C)C)s1 [Compound 182, N-hydroxy-4-{5-[4-(5-isopropyl-2-methyl-1,3-thiazol-4-yl)-phenoxy]-pentanoyl-amino}-benzamidine]
% number of osteoclast (vs. solvent control group) [1]: 45 ± 6.7%
% number of osteoclast (vs. solvent control group) [2]: 41 ± 5.1^c %
activity at 0.1 µM: 82 ± 12%

Cc1nc(-c2ccc(OCCCCCN(C)c3ccc(C(=N)NO)cc3)cc2)c(C(C)C)s1 [Compound 183, N-hydroxy-4-({5-[4-(5-isopropyl-2-methyl-1,3-thiazol-4-yl)-phenoxy]-pentyl}-methyl-amino)-benzamidine]
% number of osteoclast (vs. solvent control group) [1]: 26 ± 6.1^ab %
% number of osteoclast (vs. solvent control group) [2]: 37 ± 5.3^ac %
activity at 0.1 µM: 66 ± 7.4%

Cc1nc(-c2ccc(OCC=CCOc3ccc(C(=N)NO)cc3)cc2)c(C(C)C)s1 [Compound 184, N-hydroxy-4-{4-[4-(5-isopropyl-2-methyl-1,3-thiazol-4-yl)-phenoxy]-but-2-enyloxy}-benzamidine]
% number of osteoclast (vs. solvent control group) [1]: 38 ± 3.7^ab %
% number of osteoclast (vs. solvent control group) [2]: 38 ± 6.9^ac %
activity at 0.1 µM: 62 ± 4.6%

Cc1nc(-c2ccc(OCc3ccc(COc4ccc(C(=N)NO)cc4)cc3)cc2)c(C(C)C)s1 [Compound 185, N-hydroxy-4-{4-[4-(5-isopropyl-2-methyl-1,3-thiazol-4-yl)-phenoxymethyl]-benzyloxy}-benzamidine]
% number of osteoclast (vs. solvent control group) [1]: 57 ± 13.9%
% number of osteoclast (vs. solvent control group) [2]: 45 ± 1.4^ac %
activity at 0.1 µM: 81 ± 7%

Cc1nc(-c2ccc(OCCCCCOc3ccc(C(=N)NO)c(O)c3)cc2)c(C(C)C)s1 [Compound 188, 2,N-dihydroxy-4-{5-[4-(5-isopropyl-2-methyl-1,3-thiazol-4-yl)-phenoxy]-pentyloxy}-benzamidine]
% number of osteoclast (vs. solvent control group) [1]: 35 ± 3.2^ab %
% number of osteoclast (vs. solvent control group) [2]: 23 ± 5.1^ac %
activity at 0.1 µM: 56 ± 5.4%
